Results: patent US10653688B2, “6-(6-membered heteroaryl and aryl)isoquinolin-3-yl carboxamides and preparation and use thereof” (Samumed, LLC, priority 2017, dated 2020)
Where two headings read alike, the source gives them in different places.

Experiments:
[1] = tested on: IL-6 in human peripheral blood mononuclear cells (huPBMCs); test: IL-6 inhibition in LPS-stimulated human peripheral blood mononuclear cells (HTRF); type: cell-based; conditions: Homo sapiens, PBMC; for EC50: LPS 50 ng/mL, 22 hours, IL-6 HTRF; for inhibition at 10 µM: read-out: percent inhibition at 10 μM (given for EC50 >10 μM), LPS, IL-6, 10 μM
In short: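 Compound-treated huPBMCs (1×10e6 cells/mL, 1% FBS-RPMI) were stimulated after 2 h with LPS (50 ng/mL) for another 22 h at 37° C. An anti-IL-6 HTRF pair reported IL-6 as the 665/620 nm ratio; activity relative to DMSO, EC50 by 4-parameter Levenberg-Marquardt fitting, duplicates.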

[2] = tested on: Tau phosphorylation at Ser396 (pSer396) in SH-SY5Y cells; test: Tau phosphorylation at Ser396 (pSer396) cell assay, ELISA/western blot; type: cell-based, human; conditions: Homo sapiens; SH-SY5Y cells, overnight (16-18 h); read-out: pSer396 Tau EC50
Experimental: SH-SY5Y cells (human neuroblastoma) were cultured in DMEM/F-12 medium supplemented with 15% FBS, Non-essential Amino Acid and Penicillin/Streptomycin. Two days before treatment, cells were seeded onto 96 well plates at 5×10^4 cells/well.
The above synthesized compounds were screened using the cell assay procedure to assess decrease Tau phosphorylation at Ser396 (pSer396) described below.
DMSO-resuspended compounds were dispensed to 8 wells as a serial titration from 10 μM to 4.6 nM final in medium and cells were exposed overnight (16-18 h) in a humidified incubator at 36.6c before harvest.
Cells were lysed with RIPA buffer complemented with phosphatase and protease inhibitors then lysates were spun down at 12,000 g for 10 min to remove any cellular debris. Lysates are then either directly tested for pSer396 by ELISA (Life Technology, Kit KHB7031) or loaded on NuPage Bis-Tris gels for western blot analysis. Colorimetric detection of ELISA signal is performed by Cytation3 plate reader (Biotek) and the chemiluminescence signal for HRP-linked antibodies used in western blotting is detected using a Carestream Image Station. The same pSer396 antibody is used for detection of pTau in both assays.
Blot densitometry for pSer396 and β-actin were analyzed using ImageJ (NIH) and pSer396 Tau ELISA signal was used to plot, draw the curve fitting, and determine each compounds EC50 in Prism (GraphPad).

[3] = tested on: pT212Tau in Dyrk1a- and MAPT-overexpressing HEK293T cells; test: Tau phosphorylation at Threonine 212 (pT212Tau) sandwich ELISA in double transfected cells; conditions: Homo sapiens, HEK-293T, read-out: Thr212 EC50 (μM)
Experimental: HEK293T cells (transfectable human embryonic kidney cells) were cultured in DMEM medium supplemented with 10% FBS and 1% penicillin/streptomycin.
HEK293T cells were transiently transfected to overexpress Dyrk1a and microtubule-associated protein Tau (MAPT) genes. Specifically, Dyrk1a and MAPT expression vectors were obtained from OriGene (10 μg of each, catalog numbers SC314641 and RC216166, respectively). […] HEK293T cells were seeded at 1.0×10^7 cells in 10 mL per T-75 flask. […] One T-75 flask was designated as a no-vector negative control for pT212Tau signal.
After 4-6 hours of incubation in transfection reagents, transiently double transfected HEK293T cells were dissociated by treatment with trypsin EDTA and seeded at 1.0×10^5 cells in 100 μL per well in 96-well plates. No-vector negative controls were seeded in separate 96-well plates to avoid the risk of the negative control cells picking up the overexpression during incubation.
96-well flat-bottom plates were coated with 100 μL per well anti-HT7 capture antibody (ThermoFisher, MN1000) diluted 1:300 in 1×PBS at 4° C. overnight, with shaking at 500 rpm.
Cells were then lysed with 100 μL 1×RIPA buffer supplemented with phosphatase and protease inhibitors (each diluted to a final 1×). […] V-bottom plates were centrifuged at 4000 rpm, 4° C., for 15 minutes, and 100 μL of lysate supernatant from each well was directly tested for pT212Tau signal by sandwich ELISA.

[4] = tested on: SW480 colon carcinoma cells; test: Cell viability assay (CellTiter-Glo); type: cell-based, human; conditions: Homo sapiens; for EC50: 96 h, four days, CellTiter-Glo; for inhibition at 10 µM: read-out: percent inhibition at 10 μM (given for EC50 >10 μM), 10 μM
[5] = tested on: LL29 cells (primary human fibroblasts derived from IPF patients), α-smooth muscle actin; test: Inhibition of fibrotic process: TGF-β1-treated primary human fibroblasts, αSMA staining; type: cell-based; conditions: Homo sapiens, Fibroblast; for EC50: 96 h, TGF-β1 20 ng/mL, 4 days, % cells positive for αSMA; for inhibition at 10 µM: read-out: percent inhibition at 10 μM (given for EC50 >10 μM), TGF-β1, αSMA, 10 μM;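 on all read-outs here: controls were TGF-β1-stimulated wells with DMSO vehicle as the positive reference and cells given DMSO alone as the negative reference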
[6] = target: recombinant DYRK1A kinase (Homo sapiens (Human), UniProt Q13627); test: DYRK1A kinase assay (Ser/Thr 18 peptide Z-lyte, FRET)
[7] = tested on: Wnt activity (SW480 colon carcinoma cells stably expressing the Sp5-Luc reporter gene); test: Wnt activity screening assay (Sp5-Luc reporter gene assay); type: cell-based, human; conditions: Homo sapiens; for EC50: 36 to 48 hours; for inhibition at 10 µM: read-out: percent inhibition at 10 μM (given for EC50 >10 μM), 10 μM
In short: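 EC50 values come from a variable-slope four-parameter fit of luminescence normalized to DMSO-only wells. The read-out follows 36–48 h incubation at 37 °C, 5% CO2, in DMEM containing 1% fetal bovine serum. Cells are hygromycin-selected SW480 stably expressing firefly luciferase under a Wnt-responsive Sp5 promoter (eight TCF/LEF sites).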

recombinant GSK3β kinase = recombinant GSK3β kinase (Homo sapiens (Human), UniProt P49841); test: GSK3β kinase assay (Ser/Thr 09 peptide Z-lyte, FRET); type: biochemical;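 further: FRET read-out as coumarin over fluorescein emission ratio, compounds incubated one hour at room temperature, IC50 from dose-response curve fit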
recombinant GSK3β kinase, sequence (P49841 whole entry): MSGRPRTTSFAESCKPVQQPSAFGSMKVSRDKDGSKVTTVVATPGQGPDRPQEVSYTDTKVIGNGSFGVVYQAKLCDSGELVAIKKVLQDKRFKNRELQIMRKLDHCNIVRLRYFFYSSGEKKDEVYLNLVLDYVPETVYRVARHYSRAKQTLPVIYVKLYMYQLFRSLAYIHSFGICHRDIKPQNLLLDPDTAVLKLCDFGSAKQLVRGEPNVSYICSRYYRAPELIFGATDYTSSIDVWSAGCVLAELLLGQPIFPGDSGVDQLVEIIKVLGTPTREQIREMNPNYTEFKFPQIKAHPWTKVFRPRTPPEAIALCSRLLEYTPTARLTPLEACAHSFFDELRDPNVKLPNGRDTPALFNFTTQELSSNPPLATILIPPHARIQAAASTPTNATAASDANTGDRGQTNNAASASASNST

[8] = tested on: secreted cytokines TNFα, IL-6 and KC-GRO in BV-2 cells (mouse microglial cells); test: Secreted cytokines in lipopolysaccharide-stimulated mouse glial cell line; type: cell-based; conditions: LPS 250 ng/mL 5 hours, table does not say which cytokine
Experimental: Representative compounds were screened using the cell-based assay procedure for secreted cytokines in a Lipopolysaccharide-stimulated mouse glial cell line described below.
BV-2 cells (mouse microglial cells) were cultured in 1:1 DMEM medium supplemented with 10% FBS, and 1% penicillin/streptomycin.
BV-2 cells are plated at 35,000 cells/well in a volume of 100 μl for at least 4 hours before compounds are added. DMSO-resuspended compounds were first dispensed in a 96-well plate and serial diluted from 10 μM to 4.6 nM final concentration in medium. Compounds were added to cells overnight. 250 ng/mL of lipopolysaccharide (Escherichia coli O111:B4, SIGMA) was added for 5 hours. Supernatant is removed and saved for further cytokine detection. The original plates with seeded cells were tested for cytotoxicity by measure of adenosine triphosphate (ATP) release by adding CellTiter-Glo® diluted 1:4 in distilled water (G7573, Promega) and transferring lysed cells to a completely black 96-well plate to be read with the Cytation3. Supernatant was then diluted 1:2 with a diluent from V-PLEX cytokine Kit and directly tested for the secreted cytokines TNFα, IL-6 and KC-GRO using electrochemiluminescence (Meso Scale Discovery). The standard curve for each cytokine was used to convert the electrochemiluminescent signal into pg of protein per mL. The signal was used to plot, draw the curve fitting, and determine each compounds EC50 in Prism (GraphPad).

[9] = DYRK1A kinase, head says EC50, method says IC50, ATP 30 μM
[10] = GSK3β kinase, head says EC50, method says IC50, ATP 46 μM

Row | SMILES | EC50 [1] [nM] | inhibition at 10 µM [1] [%] | EC50 [2] [nM] | EC50 [3] [µM] | EC50 [4] [nM] | inhibition at 10 µM [4] [%] | EC50 [5] [nM] | inhibition at 10 µM [5] [%] | EC50 [6, 9] [nM] | EC50 [7] [nM] | inhibition at 10 µM [7] [%] | EC50 (recombinant GSK3β kinase; [10]) [nM] | EC50 [6] [nM] | EC50 (recombinant GSK3β kinase) [nM] | EC50 [8] [nM]
1 | O=C(Nc1cc2cc(-c3cncc(F)c3)ccc2cn1)[C@H]1C[C@H](N2CCOCC2)C1 [Compound 16, trans-N-(6-(5-Fluoropyridin-3-yl)isoquinolin-3-yl)-3-morpholinocyclobutane-1-carboxamide] | > 10000 | 43.1 | 2600 | 0.046 | > 10000 | 15.5 | > 10000 | 6.7 | 8 | > 10000 | 24.9 | 256 |  |  | 
2 | O=C(Nc1cc2cc(-c3cncc(OC4CCNCC4)c3)ccc2cn1)C1CC1 [Compound 55, N-(6-(5-(Piperidin-4-yloxy)pyridin-3-yl)isoquinolin-3-yl) cyclopropanecarboxamide] | 3230 |  | 1100 |  | 1190 |  | 2060 |  | 5 | 698 |  | 1030 |  |  | 
3 | CNC(=O)c1cncc(-c2ccc3cnc(NC(=O)C4CCN(C)CC4)cc3c2)c1 [Compound 58, N-Methyl-5-(3-(1-methylpiperidine-4-carboxamido)isoquinolin-6-yl) nicotinamide] | 9660 |  | > 10000 |  | > 10000 | 30.9 | > 10000 | 44.6 | 9 | > 10000 | 43.7 | 1970 |  |  | 
4 | Cc1ncc(-c2ccc3cnc(NC(=O)C4CCN(C)CC4)cc3c2)cn1 [Compound 63, 1-Methyl-N-(6-(2-methylpyrimidin-5-yl)isoquinolin-3-yl)piperidine-4-carboxamide] | > 10000 | 7.9 | > 10000 |  | > 10000 | 7.4 | 2390 |  | 221 | > 10000 | 9.9 | > 10000 |  |  | 
5 | CN1CCC(C(=O)Nc2cc3cc(-c4cnc(N)nc4)ccc3cn2)CC1 [Compound 65, N-(6-(2-Aminopyrimidin-5-yl)isoquinolin-3-yl)-1-methylpiperidine-4-carboxamide] | > 10000 | 0 | > 10000 |  | > 10000 | 47.1 | 2440 |  |  | > 10000 | 32.2 |  | 48 | 8970 | 
6 | CN(C)[C@H]1CC[C@H](C(=O)Nc2cc3cc(-c4cnccn4)ccc3cn2)CC1 [Compound 70, trans-4-(dimethylamino)-N-(6-(pyrazin-2-yl)isoquinolin-3-yl)cyclohexane-1-carboxamide] | 9330 |  | 7800 |  | > 10000 | 35.3 | 634 |  |  | > 10000 | 31 |  | 17 | 755 | 57
7 | O=C(Nc1cc2cc(-c3cnccn3)ccc2cn1)c1ccc(CN2CCOCC2)cc1 [Compound 83, 4-(Morpholinomethyl)-N-(6-(pyrazin-2-yl)isoquinolin-3-yl)benzamide] | > 10000 | 5 | > 10000 |  | 6760 |  | > 10000 | 29.6 | 9 | 3510 |  | > 10000 |  |  | 
8 | O=C(Nc1cc2cc(-c3cncc(OCC4CNC4)n3)ccc2cn1)c1ccc(F)cc1 [Compound 124, N-(6-(6-(azetidin-3-ylmethoxy)pyrazin-2-yl)isoquinolin-3-yl)-4-fluorobenzamide] | 2090 |  | 807 |  | 2420 |  | > 10000 | 5.2 | 6 | 1060 |  | 180 |  |  | 
